Experimental data published in patent US3950334A, “O-Alkyl-S-alkyl-O-[6-alkyl- or 6-halo-pyridazin-(3)-yl]-(thiono)thiol-phosphoric acid esters” (priority 1973, dated 1976).

Legend:
[1] = system: two-spotted spider mite (Tetranychus urticae); assay: Tetranychus test (resistant); assay type: in vivo; conditions: 48 h, after 2 days, resistant Tetranychus urticae on bean plants, read-out: Degree of destruction in % after 2 days; for mortality at 0.01 %: active compound concentration 0.01 %; for mortality at 0.1 %: active compound concentration 0.1 %
Procedure: Tetranychus test (resistant)
Solvent: 3 parts by weight of acetone
Emulsifier: 1 part by weight of alkylaryl polyglycol ether
To produce a suitable preparation of active compound, 1 part by weight of the active compound was mixed with the stated amount of solvent containing the stated amount of emulsifier and the concentrate was diluted with water to the desired concentration.
These bean plants were heavily infested with the two-spotted spider mite (Tetranychus urticae) in all stages of development.
After the specified periods of time, the effectiveness of the preparation of active compound was determined by counting the dead mites. The degree of destruction thus obtained was expressed as a percentage: 100% means that all the spider mites were killed, whereas 0% means that none of the spider mites were killed.
The active compounds, the concentrations of the active compounds, the evaluation times and the results can be seen from the following table: […]

Toxicity test/peroral = conditions: in vivo, po; Albino rat, peroral, evaluation after 7 days
Procedure: Test animal: Albino rat (Rattus norvegicus)
To produce a suitable preparation of active compound, 3 parts by weight of active compound were mixed with 2.8 parts by weight of highly-dispersible silica and 4.2 parts by weight of talc. Suspensions which contained, in 1 ml of liquid, the amount of active compound to be applied per 100 g of animal weight, were prepared from the above active-compound concentrate, with a little added powdered vegetable gum, by grinding with water. Dosing was effected volumetrically after weighing the test animals. A steel knob-ended probe was used for oral administration. The evaluation was carried out in each case after the end of the above-mentioned time interval, calculated from the administration of the active compound.
The LD50 values (dose of active compound at which 50% of the treated animals were killed) were determined in the usual manner from the mortality figures of the doses, which were varied in geometrical progression.
The active compounds and LD50 values can be seen from the table which follows: […]

Musca domestica = assay: LT100 test for Diptera; assay type: in vivo; conditions: time for 100% destruction
Procedure: Test insects: Musca domestica
2 parts by weight of active compound were dissoled in 1,000 parts by volume of solvent. The solution so obtained was diluted with further solvent to the desired lower concentrations.
2.5 ml of the solution of active compound were pipetted into a Petri dish. On the bottom of the Petri dish there was a filter paper with a diameter of about 9.5 cm. The Petri dish remained uncovered until the solvent had completely evaporated. The amount of active compound per m^2 of filter paper varied with the concentration of the solution of active compound. About 25 test insects were then placed in the Petri dish and it was covered with a glass lid.
The condition of the test insects was continuously observed. The time which was necessary for 100% destruction was determined.
The test insects, the active compounds, the concentrations of the active compounds and the times at which there was 100% destruction can be seen from the following table: […]

warm-blooded animals = conditions: in words; known compounds; cited from earlier work
[2] = active compound concentration of the solution 0.02 %
[3] = active compound concentration of the solution 0.2 %

Q: For CCCSP(=S)(OCC)Oc1ccc(Br)nn1 (stereo not drawn) [Compound 1, O-ethyl-S-n-propyl-O-[6-bromo-pyridazin(3)-yl]-thionothiolphosphoric acid ester], which mortality at 0.01 % [1] is on record?
A: The mortality at 0.01 % was 100%.

Q: And the mortality at 0.1 % [1]?
A: Its mortality at 0.1 % is 100%.

Q: And the LD50 at 168 h (Toxicity test/peroral)?
A: Its LD50 at 168 h is 100 to 250 mg/kg.

Q: For CCCSP(=S)(OCC)Oc1ccc(C)nn1 (stereo not drawn) [Compound 2], which LD50 at 168 h (Toxicity test/peroral) is on record?
A: Its LD50 at 168 h is ~50 mg/kg.

Q: For CCCSP(=S)(OCC)Oc1ccc(Cl)nn1 (stereo not drawn) [Compound 3], which “LT100 in minutes (')” value (Musca domestica; [2]) is on record?
A: The value was 165 min.

Q: And the “LT100 in minutes (')” value (Musca domestica; [3])?
A: The value was 55 min.

Q: What about the LD50 at 168 h (Toxicity test/peroral) of the same compound?
A: Its LD50 at 168 h is 100 to 250 mg/kg.

Q: What does the source list for CCOP(=S)(OCC)Oc1ccc(Cl)nn1 [Compound A, O,O-diethyl-O-[6-chloro-pyridazin-(3)-yl]-thionophosphoric acid ester]?
A: LD50 at 168 h (Toxicity test/peroral): ~5 mg/kg; toxicity to warm-blooded animals (warm-blooded animals): high toxicity to warm-blooded animals

Q: Which mortality at 0.01 % [1] does the source give for CCOP(=S)(OCC)Oc1ccc(C)nn1 [Compound B, O,O-diethyl-O-[6-methyl-pyridazin-(3)-yl]-thionophosphoric acid ester] here?
A: Its mortality at 0.01 % is 20%.

Q: What about the mortality at 0.1 % [1] of the same compound?
A: The mortality at 0.1 % was 100%.

Q: And the “LT100 in hours” value (Musca domestica; [2])?
A: The value was 8 h.

Q: What about the “LT100 in minutes (')” value (Musca domestica; [3]) of the same compound?
A: The value was 135 min.

Q: And the LD50 at 168 h (Toxicity test/peroral)?
A: Its LD50 at 168 h is 0.5 to 1 mg/kg.

Q: And the “toxicity to warm-blooded animals” value (warm-blooded animals)?
A: The value was “high toxicity to warm-blooded animals”.
